Assay results published in patent US12281081B2, “Herbicidal compounds” (SYNGENTA CROP PROTECTION AG, priority 2019, dated 2025).

Key:
[1] = system: Alopecurus myosuroides (ALOMY); assay: Pre-emergence herbicidal glasshouse test; type: in vivo; conditions: 250 g/Ha, evaluated after 13 days
Text: (§1) Compounds are applied at 250 g/h. […] NT=not tested.

Avena fatua (AVEFA) [2] = assay: Pre-emergence herbicidal glasshouse test; type: in vivo; conditions: 250 g/Ha, evaluated after 13 days
Text: as §1

[3] = system: Echinochloa crus-galli (ECHCG); assay: Pre-emergence herbicidal glasshouse test; type: in vivo; conditions: 250 g/Ha, evaluated after 13 days
Text: as §1

Lolium perenne (LOLPE) [4] = assay: Pre-emergence herbicidal glasshouse test; type: in vivo; conditions: 250 g/Ha, evaluated after 13 days
Text: as §1

Setaria faberi (SETFA) [5] = assay: Pre-emergence herbicidal glasshouse test; type: in vivo; conditions: 250 g/Ha, evaluated after 13 days
Text: as §1

[6] = system: Alopecurus myosuroides (ALOMY); assay: Post-emergence herbicidal glasshouse test; type: in vivo; conditions: 250 g/Ha, evaluated after 13 days
Text: as §1

Avena fatua (AVEFA) [7] = assay: Post-emergence herbicidal glasshouse test; type: in vivo; conditions: 250 g/Ha, evaluated after 13 days
Text: as §1

[8] = system: Echinochloa crus-galli (ECHCG); assay: Post-emergence herbicidal glasshouse test; type: in vivo; conditions: 250 g/Ha, evaluated after 13 days
Text: as §1

Lolium perenne (LOLPE) [9] = assay: Post-emergence herbicidal glasshouse test; type: in vivo; conditions: 250 g/Ha, evaluated after 13 days
Text: as §1

Setaria faberi (SETFA) [10] = assay: Post-emergence herbicidal glasshouse test; type: in vivo; conditions: 250 g/Ha, evaluated after 13 days
Text: as §1

wheat crop plants = assay: Crop phytotoxicity comparison, post-emergence
barley crop plants = assay: Crop phytotoxicity comparison, post-emergence
[11] = rate 60 g/ha + safener cloquintocet-mexyl (CQC) at 50 g/ha

| Structure (SMILES) | percentage damage caused to the plant, ALOMY [1] | percentage damage caused to the plant, AVEFA (Avena fatua (AVEFA) [2]) | percentage damage caused to the plant, ECHCG [3] | percentage damage caused to the plant, LOLPE (Lolium perenne (LOLPE) [4]) | percentage damage caused to the plant, SETFA (Setaria faberi (SETFA) [5]) | percentage damage caused to the plant, ALOMY [6] | percentage damage caused to the plant, AVEFA (Avena fatua (AVEFA) [7]) | percentage damage caused to the plant, ECHCG [8] | percentage damage caused to the plant, LOLPE (Lolium perenne (LOLPE) [9]) | percentage damage caused to the plant, SETFA (Setaria faberi (SETFA) [10]) | % phytotoxicity observed, Wheat (wheat crop plants; rate 30 g/ha) [%] | % phytotoxicity observed, Wheat (wheat crop plants; rate 60 g/ha) [%] | % phytotoxicity observed, Wheat (wheat crop plants; [11]) [%] | damage to the wheat crop compared to prior art compound C1 (wheat crop plants; summary of Table B3) | % phytotoxicity observed, Barley (barley crop plants; rate 30 g/ha) [%] | % phytotoxicity observed, Barley (barley crop plants; rate 60 g/ha) [%] | damage to the barley crop compared to prior art compound C1 (barley crop plants; summary of Table B3) |
| --- | --- | --- | --- | --- | --- | --- | --- | --- | --- | --- | --- | --- | --- | --- | --- | --- | --- |
| CC#Cc1cc(C)c(C2C(=O)CC3(CCN(S(=O)(=O)NC(C)=O)CC3)CC2=O)c(C)c1 [Compound A13] | 5 (5=80-100%) | 5 (5=80-100%) | 5 (5=80-100%) | 5 (5=80-100%) | 5 (5=80-100%) | 5 (5=80-100%) | 5 (5=80-100%) | 5 (5=80-100%) | 5 (5=80-100%) | 5 (5=80-100%) |  |  |  |  |  |  |  |
| CC#Cc1cc(C)c(C2C(=O)CC3(CCN(S(=O)(=O)N(C)CC#N)CC3)CC2=O)c(C)c1 [Compound A11] | 1 (1=0-19%) | 2 (2=20-39%) | 5 (5=80-100%) | 4 (4=60-79%) | 5 (5=80-100%) | 5 (5=80-100%) | 5 (5=80-100%) | 5 (5=80-100%) | 5 (5=80-100%) | 5 (5=80-100%) |  |  |  |  |  |  |  |
| CC#Cc1cc(C)c(C2C(=O)CC3(CCN(S(=N)(=O)c4ccccn4)CC3)CC2=O)c(C)c1 (stereo not shown) [Compound A5] |  | 5 (5=80-100%) | 5 (5=80-100%) | 5 (5=80-100%) | 5 (5=80-100%) |  | 5 (5=80-100%) | 5 (5=80-100%) | 5 (5=80-100%) | 5 (5=80-100%) |  |  |  |  |  |  |  |
| CC#Cc1cc(C)c(C2C(=O)CC3(CCN(S(C)(=N)=O)CC3)CC2=O)c(C)c1 (stereo not shown) [Compound A1, 9-(2,6-dimethyl-4-prop-1-ynyl-phenyl)-3-(methylsulfonimidoyl)-3-azaspiro[5.5]undecane-8,10-dione] | 5 (5=80-100%) | 5 (5=80-100%) | 5 (5=80-100%) | 5 (5=80-100%) | 5 (5=80-100%) | 5 (5=80-100%) | 5 (5=80-100%) | 5 (5=80-100%) | 5 (5=80-100%) | 5 (5=80-100%) | 0 | 0 | 0 | significantly less damaging | 0 | 0 | significantly less damaging |
| CC#Cc1cc(C)c(C2C(=O)CC3(CCN(S(=O)(=O)N(C)C)CC3)CC2=O)c(C)c1 [Compound A4] | 5 (5=80-100%) | 5 (5=80-100%) | 5 (5=80-100%) | 5 (5=80-100%) | 5 (5=80-100%) | 5 (5=80-100%) | 5 (5=80-100%) | 5 (5=80-100%) | 5 (5=80-100%) | 5 (5=80-100%) |  |  |  |  |  |  |  |
| CC#Cc1cc(C)c(C2C(=O)CC3(CCN(S(=N)(=O)CC)CC3)CC2=O)c(C)c1 (stereo not shown) [Compound A2] | 5 (5=80-100%) | 5 (5=80-100%) | 5 (5=80-100%) | 5 (5=80-100%) | 5 (5=80-100%) | 5 (5=80-100%) | 5 (5=80-100%) | 5 (5=80-100%) | 5 (5=80-100%) | 5 (5=80-100%) |  |  |  |  |  |  |  |
| CC#Cc1cc(C)c(C2=C(OC(=O)OC)CC3(CCN(S(=O)(=O)NC)CC3)CC2=O)c(C)c1 [Compound P2, [9-(2,6-dimethyl-4-prop-1-ynyl-phenyl)-3-(methylsulfamoyl)-10-oxo-3-azaspiro[5.5]undec-8-en-8-yl] methyl carbonate] | 5 (5=80-100%) | 5 (5=80-100%) | 5 (5=80-100%) | 5 (5=80-100%) | 5 (5=80-100%) | 5 (5=80-100%) | 5 (5=80-100%) | 5 (5=80-100%) | 5 (5=80-100%) | 5 (5=80-100%) |  |  |  |  |  |  |  |
| CC#Cc1cc(C)c(C2C(=O)CC3(CCN(S(=O)(=O)N4CCS(=O)(=O)CC4)CC3)CC2=O)c(C)c1 [Compound A12] | 5 (5=80-100%) | 5 (5=80-100%) | 5 (5=80-100%) | 4 (4=60-79%) | 5 (5=80-100%) | 5 (5=80-100%) | 5 (5=80-100%) | 5 (5=80-100%) | 4 (4=60-79%) | 5 (5=80-100%) |  |  |  |  |  |  |  |
| CC#Cc1cc(C)c(C2=C(OC(=O)OC)CC3(CCN(S(=O)(=O)N(C)C(=O)OC)CC3)CC2=O)c(C)c1 [Compound P4] | 5 (5=80-100%) | 5 (5=80-100%) | 5 (5=80-100%) | 5 (5=80-100%) | 5 (5=80-100%) | 5 (5=80-100%) | 5 (5=80-100%) | 5 (5=80-100%) | 5 (5=80-100%) | 5 (5=80-100%) |  |  |  |  |  |  |  |
| CC#Cc1cc(C)c(C2C(=O)CC3(CCN(S(=O)(=O)N4CCOCC4)CC3)CC2=O)c(C)c1 [Compound A7] | 2 (2=20-39%) | 1 (1=0-19%) | 5 (5=80-100%) | 5 (5=80-100%) | 5 (5=80-100%) | 5 (5=80-100%) | 5 (5=80-100%) | 5 (5=80-100%) | 5 (5=80-100%) | 5 (5=80-100%) |  |  |  |  |  |  |  |
| CC#Cc1cc(C)c(C2C(=O)CC3(CCOCC3)CC2=O)c(C)c1 [Compound C1, reference compound] |  |  |  |  |  |  |  |  |  |  | 40 | 70 | 60 |  | 80 | 90 |  |
| CC#Cc1cc(C)c(C2C(=O)CC3(CCN(S(=O)(=O)NCC)CC3)CC2=O)c(C)c1 [Compound A6] | 3 (3=40-59%) | 4 (4=60-79%) | 5 (5=80-100%) | 4 (4=60-79%) | 5 (5=80-100%) | 5 (5=80-100%) | 5 (5=80-100%) | 5 (5=80-100%) | 5 (5=80-100%) | 5 (5=80-100%) |  |  |  |  |  |  |  |
| CC#Cc1cc(C)c(C2=C(OC(=O)OC)CC3(CCN(S(=N)(=O)CC)CC3)CC2=O)c(C)c1 (stereo not shown) [Compound P1] | 5 (5=80-100%) | 5 (5=80-100%) | 5 (5=80-100%) | 5 (5=80-100%) | 5 (5=80-100%) | 5 (5=80-100%) | 5 (5=80-100%) | 5 (5=80-100%) | 5 (5=80-100%) | 5 (5=80-100%) |  |  |  |  |  |  |  |
| CC#Cc1cc(C)c(C2=C(OC(=O)OC)CC3(CCN(S(C)(=N)=O)CC3)CC2=O)c(C)c1 (stereo not shown) [Compound P3, [9-(2,6-dimethyl-4-prop-1-ynyl-phenyl)-3-(methylsulfonimidoyl)-10-oxo-3-azaspiro[5.5]undec-8-en-8-yl] methyl carbonate] | 5 (5=80-100%) | 5 (5=80-100%) | 5 (5=80-100%) | 5 (5=80-100%) | 5 (5=80-100%) | 5 (5=80-100%) | 5 (5=80-100%) |  | 5 (5=80-100%) | 5 (5=80-100%) |  |  |  |  |  |  |  |
